Experimental data: PMC10239507, “Development of allosteric and selective CDK2 inhibitors for contraception with negative cooperativity to cyclin binding” (Nature Communications, 2023)

What was measured:
Experiment in all cases: biochemical
[1] = target: T1, 371 kinases (kinase named in each endpoint) (Homo sapiens, UniProt Q16620); conditions: TRKB
T1 construct: purchased Reaction Biology

[2] = target: T2, 371 kinases (kinase named in each endpoint) (Homo sapiens, UniProt Q04771); conditions: ALK2/ACVR1
T2 construct: purchased Reaction Biology

[3] = target: T3, 371 kinases (kinase named in each endpoint) (Homo sapiens, UniProt P52333); conditions: JAK3
T3 construct: purchased Reaction Biology

[4] = target: T4, 371 kinases (kinase named in each endpoint) (Homo sapiens, UniProt P29376); conditions: TYK1/LTK
T4 construct: purchased Reaction Biology

[5] = target: T5, 371 kinases (kinase named in each endpoint) (Homo sapiens, UniProt Q8IY84); conditions: NIM1
T5 construct: purchased Reaction Biology

[6] = target: T6, 371 kinases (kinase named in each endpoint) (Homo sapiens, UniProt Q13555); conditions: CAMK2g
T6 construct: purchased Reaction Biology

[7] = target: T7, 371 kinases (kinase named in each endpoint) (Homo sapiens, UniProt Q8TD08); conditions: ERK7/MAPK15
T7 construct: purchased Reaction Biology

[8] = target: T8, 371 kinases (kinase named in each endpoint) (Homo sapiens, UniProt P21709); conditions: EPHA1
T8 construct: purchased Reaction Biology

[9] = target: T9, 371 kinases (kinase named in each endpoint) (Homo sapiens, UniProt Q9P0L2); conditions: MARK1
T9 construct: purchased Reaction Biology

[10] = target: T10, 371 kinases (kinase named in each endpoint) (Homo sapiens, UniProt Q16512); conditions: PKN1/PRK1
T10 construct: purchased Reaction Biology

[11] = target: T11, 371 kinases (kinase named in each endpoint) (Homo sapiens, UniProt Q9H2G2); conditions: SLK/STK2
T11 construct: purchased Reaction Biology

[12] = target: T12, 371 kinases (kinase named in each endpoint) (Homo sapiens, UniProt P27361); conditions: ERK1
T12 construct: purchased Reaction Biology

[13] = target: T13, 371 kinases (kinase named in each endpoint) (Homo sapiens, UniProt P51617); conditions: IRAK1
T13 construct: purchased Reaction Biology

[14] = target: T14, 371 kinases (kinase named in each endpoint) (Homo sapiens, UniProt Q56UN5); conditions: YSK4/MAP3K19
T14 construct: purchased Reaction Biology

[15] = target: T15, 371 kinases (kinase named in each endpoint) (Homo sapiens, UniProt Q13043); conditions: MST1/STK4
T15 construct: purchased Reaction Biology

[16] = target: T16, 371 kinases (kinase named in each endpoint) (Homo sapiens, UniProt Q9UEW8); conditions: STK39/STLK3
T16 construct: purchased Reaction Biology

[17] = target: T17, 371 kinases (kinase named in each endpoint) (Homo sapiens, UniProt Q9UM73); conditions: ALK
T17 construct: purchased Reaction Biology

[18] = target: T18, 371 kinases (kinase named in each endpoint) (Homo sapiens, UniProt Q8TDC3); conditions: BRSK1
T18 construct: purchased Reaction Biology

[19] = target: T19, 371 kinases (kinase named in each endpoint) (Homo sapiens, UniProt Q9H093); conditions: SNARK/NUAK2
T19 construct: purchased Reaction Biology

[20] = target: T20, 371 kinases (kinase named in each endpoint) (Homo sapiens, UniProt P12931); conditions: C-SRC
T20 construct: purchased Reaction Biology

[21] = target: T21, 371 kinases (kinase named in each endpoint) (Homo sapiens, UniProt Q07002); conditions: CDK18/CYCLIN Y (PCTK3)
T21 construct: purchased Reaction Biology

[22] = target: T22, 371 kinases (kinase named in each endpoint) (Homo sapiens, UniProt P51451); conditions: BLK
T22 construct: purchased Reaction Biology

[23] = target: T23, 371 kinases (kinase named in each endpoint) (Homo sapiens, UniProt Q9UK32); conditions: RSK4
T23 construct: purchased Reaction Biology

[24] = target: T24, 371 kinases (kinase named in each endpoint) (Homo sapiens, UniProt Q9NYY3); conditions: PLK2
T24 construct: purchased Reaction Biology

[25] = target: T25, 371 kinases (kinase named in each endpoint) (Homo sapiens, UniProt Q8TF76); conditions: HASPIN
T25 construct: purchased Reaction Biology

[26] = target: T26, 371 kinases (kinase named in each endpoint) (Homo sapiens, UniProt Q15303); conditions: ERBB4/HER4
T26 construct: purchased Reaction Biology

[27] = target: T27, 371 kinases (kinase named in each endpoint) (Homo sapiens, UniProt O14757); conditions: CHK1
T27 construct: purchased Reaction Biology

[28] = target: T28, 371 kinases (kinase named in each endpoint) (Homo sapiens, UniProt O75385); conditions: ULK1
T28 construct: purchased Reaction Biology

[29] = target: T29, 371 kinases (kinase named in each endpoint) (Homo sapiens, UniProt Q96KB5); conditions: PBK/TOPK
T29 construct: purchased Reaction Biology

[30] = target: T30, 371 kinases (kinase named in each endpoint) (Homo sapiens, UniProt Q6VAB6); conditions: KSR2
T30 construct: purchased Reaction Biology

[31] = target: T31, 371 kinases (kinase named in each endpoint) (Homo sapiens, UniProt Q9BYT3); conditions: STK33
T31 construct: purchased Reaction Biology

[32] = target: T32, 371 kinases (kinase named in each endpoint) (Homo sapiens, UniProt Q00534)
T32 construct: purchased Reaction Biology

[33] = target: T33, 371 kinases (kinase named in each endpoint) (Homo sapiens, UniProt P00519); conditions: ABL1
T33 construct: purchased Reaction Biology

[34] = target: T34, 371 kinases (kinase named in each endpoint) (Homo sapiens, UniProt O14578); conditions: STK21/CIT
T34 construct: purchased Reaction Biology

[35] = target: T35, 371 kinases (kinase named in each endpoint) (Homo sapiens, UniProt Q9NYL2); conditions: ZAK/MLTK
T35 construct: purchased Reaction Biology

[36] = target: T36, 371 kinases (kinase named in each endpoint) (Homo sapiens, UniProt O43187); conditions: IRAK2
T36 construct: purchased Reaction Biology

T32 sequence (Q00534 whole entry): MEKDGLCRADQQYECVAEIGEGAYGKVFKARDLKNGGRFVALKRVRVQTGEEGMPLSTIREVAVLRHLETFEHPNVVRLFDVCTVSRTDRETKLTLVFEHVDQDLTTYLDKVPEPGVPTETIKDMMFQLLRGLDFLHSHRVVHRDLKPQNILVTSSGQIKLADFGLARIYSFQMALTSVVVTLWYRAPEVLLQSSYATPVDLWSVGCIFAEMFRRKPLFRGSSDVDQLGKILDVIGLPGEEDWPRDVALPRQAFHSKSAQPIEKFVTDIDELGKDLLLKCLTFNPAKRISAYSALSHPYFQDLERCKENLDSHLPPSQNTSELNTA
T23 sequence (Q9UK32 whole entry): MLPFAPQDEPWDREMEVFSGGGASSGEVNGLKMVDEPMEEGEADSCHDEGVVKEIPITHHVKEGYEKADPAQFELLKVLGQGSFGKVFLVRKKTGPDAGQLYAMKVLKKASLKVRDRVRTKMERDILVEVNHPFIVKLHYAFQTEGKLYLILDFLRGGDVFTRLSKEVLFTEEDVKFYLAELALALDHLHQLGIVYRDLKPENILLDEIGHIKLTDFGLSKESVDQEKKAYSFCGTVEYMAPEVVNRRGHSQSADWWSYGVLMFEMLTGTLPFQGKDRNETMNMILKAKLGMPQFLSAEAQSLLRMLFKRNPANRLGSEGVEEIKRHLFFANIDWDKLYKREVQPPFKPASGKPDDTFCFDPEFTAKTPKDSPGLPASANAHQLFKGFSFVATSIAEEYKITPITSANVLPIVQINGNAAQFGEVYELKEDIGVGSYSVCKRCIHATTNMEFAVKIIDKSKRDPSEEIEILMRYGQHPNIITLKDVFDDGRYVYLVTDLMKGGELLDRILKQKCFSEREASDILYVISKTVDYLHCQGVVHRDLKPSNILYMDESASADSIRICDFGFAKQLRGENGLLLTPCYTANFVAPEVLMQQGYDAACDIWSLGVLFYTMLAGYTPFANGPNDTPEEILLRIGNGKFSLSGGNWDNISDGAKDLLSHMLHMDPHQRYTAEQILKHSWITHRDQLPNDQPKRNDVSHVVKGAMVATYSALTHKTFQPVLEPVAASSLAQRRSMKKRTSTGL
T2 sequence (Q04771 21-509): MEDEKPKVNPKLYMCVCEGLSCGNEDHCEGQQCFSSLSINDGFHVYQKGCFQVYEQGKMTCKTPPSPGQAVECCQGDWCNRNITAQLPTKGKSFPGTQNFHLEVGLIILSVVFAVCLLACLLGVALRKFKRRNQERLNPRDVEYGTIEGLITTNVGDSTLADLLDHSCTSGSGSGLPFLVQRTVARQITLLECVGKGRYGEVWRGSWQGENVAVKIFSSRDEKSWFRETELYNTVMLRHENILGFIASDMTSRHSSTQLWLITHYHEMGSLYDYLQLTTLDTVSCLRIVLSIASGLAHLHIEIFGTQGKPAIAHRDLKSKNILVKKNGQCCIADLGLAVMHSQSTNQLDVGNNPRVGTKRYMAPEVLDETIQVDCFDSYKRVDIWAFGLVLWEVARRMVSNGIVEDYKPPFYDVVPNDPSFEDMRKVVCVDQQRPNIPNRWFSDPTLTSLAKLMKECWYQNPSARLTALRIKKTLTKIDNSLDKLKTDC
T1 sequence (Q16620 32-822): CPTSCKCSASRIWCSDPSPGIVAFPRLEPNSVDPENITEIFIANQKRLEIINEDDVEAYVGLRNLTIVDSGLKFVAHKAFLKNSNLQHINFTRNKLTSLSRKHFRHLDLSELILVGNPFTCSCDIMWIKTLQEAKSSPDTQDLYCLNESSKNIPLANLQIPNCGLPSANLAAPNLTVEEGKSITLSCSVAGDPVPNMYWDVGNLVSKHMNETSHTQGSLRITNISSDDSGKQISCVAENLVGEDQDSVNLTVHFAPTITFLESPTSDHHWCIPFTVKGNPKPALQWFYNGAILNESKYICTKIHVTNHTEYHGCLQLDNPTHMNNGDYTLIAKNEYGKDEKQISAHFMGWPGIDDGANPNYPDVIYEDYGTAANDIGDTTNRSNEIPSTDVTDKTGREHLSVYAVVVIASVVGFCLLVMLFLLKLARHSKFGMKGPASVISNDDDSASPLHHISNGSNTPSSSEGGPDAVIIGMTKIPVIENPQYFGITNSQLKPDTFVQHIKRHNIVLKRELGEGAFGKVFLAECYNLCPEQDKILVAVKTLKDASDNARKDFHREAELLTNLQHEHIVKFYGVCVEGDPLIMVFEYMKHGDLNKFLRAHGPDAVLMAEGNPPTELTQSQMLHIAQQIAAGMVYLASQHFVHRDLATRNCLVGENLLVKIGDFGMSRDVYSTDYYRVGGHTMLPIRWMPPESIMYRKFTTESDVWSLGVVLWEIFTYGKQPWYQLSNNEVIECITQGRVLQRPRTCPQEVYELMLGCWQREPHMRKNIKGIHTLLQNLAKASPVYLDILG
T3 sequence (P52333 whole entry): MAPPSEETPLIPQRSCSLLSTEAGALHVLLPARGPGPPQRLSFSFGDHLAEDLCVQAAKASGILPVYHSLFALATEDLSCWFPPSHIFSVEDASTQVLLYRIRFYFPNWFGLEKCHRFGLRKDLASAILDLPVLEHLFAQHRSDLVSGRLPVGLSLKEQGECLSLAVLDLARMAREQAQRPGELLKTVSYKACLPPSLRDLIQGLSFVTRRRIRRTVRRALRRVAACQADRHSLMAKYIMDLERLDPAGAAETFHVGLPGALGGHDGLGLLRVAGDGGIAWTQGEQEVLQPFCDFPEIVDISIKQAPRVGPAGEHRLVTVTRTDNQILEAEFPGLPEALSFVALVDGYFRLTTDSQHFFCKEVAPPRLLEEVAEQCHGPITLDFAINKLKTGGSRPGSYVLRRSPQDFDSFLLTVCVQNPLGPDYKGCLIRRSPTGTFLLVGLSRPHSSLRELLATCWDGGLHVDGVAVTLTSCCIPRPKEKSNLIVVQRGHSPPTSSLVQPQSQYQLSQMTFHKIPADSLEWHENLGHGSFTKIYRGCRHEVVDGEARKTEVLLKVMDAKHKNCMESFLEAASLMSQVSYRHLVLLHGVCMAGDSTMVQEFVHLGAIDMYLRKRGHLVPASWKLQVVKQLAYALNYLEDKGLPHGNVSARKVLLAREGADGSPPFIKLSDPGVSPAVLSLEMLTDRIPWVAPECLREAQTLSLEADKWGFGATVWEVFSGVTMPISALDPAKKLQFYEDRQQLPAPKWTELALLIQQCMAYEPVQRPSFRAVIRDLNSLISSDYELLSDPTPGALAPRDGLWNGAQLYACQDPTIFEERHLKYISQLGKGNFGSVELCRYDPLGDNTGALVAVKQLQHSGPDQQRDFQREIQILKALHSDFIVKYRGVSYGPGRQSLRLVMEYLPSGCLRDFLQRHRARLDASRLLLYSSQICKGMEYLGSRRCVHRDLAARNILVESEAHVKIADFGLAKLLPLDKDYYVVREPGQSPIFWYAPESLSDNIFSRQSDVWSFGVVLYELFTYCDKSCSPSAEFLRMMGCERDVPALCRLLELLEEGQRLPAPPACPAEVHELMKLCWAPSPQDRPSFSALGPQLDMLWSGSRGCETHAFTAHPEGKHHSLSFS
T31 sequence (Q9BYT3 whole entry): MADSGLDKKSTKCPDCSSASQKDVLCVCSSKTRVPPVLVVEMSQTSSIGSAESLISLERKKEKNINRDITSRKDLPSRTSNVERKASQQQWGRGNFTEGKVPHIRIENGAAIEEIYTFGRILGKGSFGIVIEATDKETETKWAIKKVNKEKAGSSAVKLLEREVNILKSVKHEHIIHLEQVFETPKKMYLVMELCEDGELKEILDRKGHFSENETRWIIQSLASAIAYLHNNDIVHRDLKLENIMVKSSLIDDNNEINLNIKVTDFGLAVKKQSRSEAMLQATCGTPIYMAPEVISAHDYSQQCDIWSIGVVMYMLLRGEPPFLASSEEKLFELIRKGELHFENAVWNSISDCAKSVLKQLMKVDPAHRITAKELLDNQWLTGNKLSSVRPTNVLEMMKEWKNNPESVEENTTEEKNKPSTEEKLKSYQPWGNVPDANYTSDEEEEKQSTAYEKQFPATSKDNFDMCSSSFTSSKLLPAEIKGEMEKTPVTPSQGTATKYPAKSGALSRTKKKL
T22 sequence (P51451 whole entry): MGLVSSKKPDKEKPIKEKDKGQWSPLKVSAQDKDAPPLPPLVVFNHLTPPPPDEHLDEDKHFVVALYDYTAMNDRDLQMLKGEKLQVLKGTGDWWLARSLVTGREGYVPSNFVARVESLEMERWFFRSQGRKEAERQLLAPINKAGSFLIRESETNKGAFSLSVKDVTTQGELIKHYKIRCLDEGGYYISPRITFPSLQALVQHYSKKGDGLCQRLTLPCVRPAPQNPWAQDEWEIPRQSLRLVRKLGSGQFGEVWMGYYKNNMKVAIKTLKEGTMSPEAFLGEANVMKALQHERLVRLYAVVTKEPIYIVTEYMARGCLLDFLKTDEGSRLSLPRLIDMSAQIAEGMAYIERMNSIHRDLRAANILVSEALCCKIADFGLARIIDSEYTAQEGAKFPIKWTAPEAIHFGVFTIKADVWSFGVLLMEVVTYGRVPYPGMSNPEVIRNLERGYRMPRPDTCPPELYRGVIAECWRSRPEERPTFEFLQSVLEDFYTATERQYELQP
T20 sequence (P12931 whole entry): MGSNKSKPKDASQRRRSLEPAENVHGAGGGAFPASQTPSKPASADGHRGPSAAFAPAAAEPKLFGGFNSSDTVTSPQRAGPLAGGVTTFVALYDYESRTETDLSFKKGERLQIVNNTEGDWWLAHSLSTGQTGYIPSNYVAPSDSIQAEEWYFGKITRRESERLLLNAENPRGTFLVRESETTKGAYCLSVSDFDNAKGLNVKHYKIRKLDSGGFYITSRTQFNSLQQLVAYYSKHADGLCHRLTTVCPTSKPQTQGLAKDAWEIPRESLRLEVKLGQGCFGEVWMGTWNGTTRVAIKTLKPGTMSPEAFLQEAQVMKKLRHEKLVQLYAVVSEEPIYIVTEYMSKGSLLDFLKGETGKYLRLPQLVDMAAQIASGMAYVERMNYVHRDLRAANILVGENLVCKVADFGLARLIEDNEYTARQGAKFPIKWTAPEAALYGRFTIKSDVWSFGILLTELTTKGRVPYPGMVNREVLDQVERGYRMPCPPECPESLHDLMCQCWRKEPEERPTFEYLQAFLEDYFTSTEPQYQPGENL

Structure (SMILES): O=C(O)c1cc(C(F)(F)F)ccc1NCCc1c[nH]c2cc(Br)ccc12 [Compound 5, 2-((2-(6-Bromo-1H-indol-3-yl)ethyl)amino)−5-(trifluoromethyl)benzoic Acid]
- activity at 10 µM [1]: 45.4 ± 7.4%
- activity at 10 µM [2]: 74.1 ± 1.8%
- activity at 10 µM [3]: 94.7 ± 0.1%
- activity at 10 µM [4]: 86.2 ± 1.1%
- activity at 10 µM [5]: 88.9 ± 1%
- activity at 10 µM [6]: 74.4%
- activity at 10 µM [7]: 136 ± 6.1%
- activity at 10 µM [8]: 102.2 ± 0.1%
- activity at 10 µM [9]: 93.3 ± 0.5%
- activity at 10 µM [10]: 123 ± 1.9%
- activity at 10 µM [11]: 89.7 ± 3%
- activity at 10 µM [12]: 99.7 ± 0.9%
- activity at 10 µM [13]: 102 ± 2.5%
- activity at 10 µM [14]: 110.3 ± 0.7%
- activity at 10 µM [15]: 89.6 ± 2.7%
- activity at 10 µM [16]: 113.4 ± 0.1%
- activity at 10 µM [17]: 93.8 ± 0.7%
- activity at 10 µM [18]: 77.2 ± 2.3%
- activity at 10 µM [19]: 87.7 ± 2.3%
- activity at 10 µM [20]: 95.1 ± 0.2%
- activity at 10 µM [21]: 99 ± 0.1%
- activity at 10 µM [22]: 92.7 ± 1.3%
- activity at 10 µM [23]: 91 ± 0.4%
- activity at 10 µM [24]: 67.4 ± 0.7%
- activity at 10 µM [25]: 59.9 ± 1.3%
- activity at 10 µM [26]: 96.2 ± 1%
- activity at 10 µM [27]: 95.2 ± 1.2%
- activity at 10 µM [28]: 106.8 ± 0.3%
- activity at 10 µM [29]: 156 ± 1.8%
- activity at 10 µM [30]: 83.3 ± 1.5%
- activity at 10 µM [31]: 85.1 ± 4.1%
- activity at 10 µM ([32]; CDK6/CYCLIN D1): 87.9 ± 0.1%
- activity at 10 µM ([32]; CDK6/CYCLIN D2): 44.6 ± 0.5%
- activity at 10 µM ([32]; CDK6/CYCLIN D3): 60.9 ± 1.2%
- activity at 10 µM [33]: 98.7 ± 0.5%
- activity at 10 µM [34]: 102.1 ± 0.3%
- activity at 10 µM [35]: 96.9 ± 0.2%
- activity at 10 µM [36]: 145 ± 0.9%
